Data set [1] deals with pThr231Tau/tTau. The experiment in a line: pThr231Tau/tTau ratio (ELISA) in APP^dp iPSC-derived FAD neurons. In kind it is cell-based, human. Particulars: for abrogation of the atorvastatin-induced decrease in pThr231Tau/tTau ratio: 3 days; for pThr231Tau/tTau, dosage effect: dose range.
Data set [2] deals with APP^dp1-6 neurons. The experiment in a line: lipid analysis of APP^dp1-6 neurons. It is filed as cell-based, human. Particulars: 3 days.
Data set [3] relates to Tau (PHF-1). As to the kind of experiment: PHF-1 (Tau) staining of 4RTau-tg mouse brain sections. In kind it is in vivo. The following applies: 4R Tau-tg mice, 25 mg/kg daily oral gavage, 3 months.
Experimental: FIGS. 7A-7D show PHF-1 staining of 4RTau-tg mouse sections. […] (FIG. 7A) Representative sections stained for PHF-1. Low power images show areas of enlargements where measurements were obtained. (FIGS. 7B-7D) Sections were analyzed with video bright field microscopy and immunoreactivity was quantified as corrected optical density. * indicated p<0.05 compared to vehicle treated 4RTau-tg mice, ** indicates p<0.005 compared to vehicle treated 4RTau-tg mice. Scale bar=200 μm in low power images and 20 μm in higher power images.
Following treatment, mice were sacrificed, brains removed and sectioned along the sagittal axis with half flash frozen and half drop fixed in 4% PFA. Fixed brains were sectioned with a vibratome (40 μm) and stained for GFAP, PHF1 (Tau) or Synaptophysin. Sections were imaged with a Leica microscope with a digital camera and analyzed with ImageJ for optical density (GFAP, Synaptophysin) or % area of neuropil (PHF1). Statistics were conducted with Prism6 using ANOVA one way analysis with Tukey-Kramer post hoc analysis.
In data set [4] the test system is pThr231Tau/tTau. As to the kind of experiment: pThr231Tau/tTau in non-demented control (NDC) neurons. The following applies: NDC neurons with two copies of APP.
Data set [5] relates to Aβ42 secretion. The experiment in a line: secreted Aβ42 in APP-Δcholesterol neurons. In kind it is cell-based, human. Particulars: APP E693A and F691A+E693A neurons, 10 μM, 3 days. The text has this:
FIGS. 4A-4F show regulation of Aβ by CE Is Mediated by a Cholesterol Binding Domain in APP. […] Green indicates amino acid sequence. Red arrow indicates CRISPR/Cas9 cut site. […] Two E693A (line 3D9 and 2B2) and one F691A+E693A line (line D12) were generated, as well as two non-gene-edited, but clonally expanded, WT lines (B10 and B11). FIGS. 4D-4F show measurements made using APP-Δcholesterol neurons with the following genotypes: WT (average from 2 independent lines), E693A (2 independent lines), and F691A+E693A (1 line) (mean±SEM, n R 3 per line). (D) Relative secreted Ab42 levels in conditioned media from purified CD184^−, CD44^−, and CD24^+ neurons (mean±SEM, n≥3 per line).

Data set [6] deals with pTau. The experiment in a line: immunofluorescence of pTau epitopes in APP^dp1-6 neurons. In kind it is cell-based, human. The following applies: 10 μM, 5 days. The text has this:
Vehicle alone controls (DMSO) are shown in black. […] SER, selective estrogen […] (n=4). […] NF—H, neurofilament H, axonal marker. The pThr231Tau antibody used is TG3, which detects a conformational epitope of pThr231Tau. Scale bar, 100 μm.

The subject of data set [7] is iPSC-derived astrocytes. The text has this:
Scale bar, 10 μm. […] Astrocytic viability (blue line) was plotted against results from FIGS. 1D and S1A for statins (neuronal viability and pThr231Tau/Tau ratio).

The subject of data set [8] is APP^dp1-6 neurons. As to the kind of experiment: cell viability of APP^dp1-6 iPSC-derived neurons. Particulars: dose range.
The conditions of data set [9]: human, in vivo; cited from earlier work.
The conditions of data set [10]: lower concentrations that sufficed to alter brain cholesterol metabolism; Mast et al., 2017b; cited from earlier work.
The test system of data set [11] is APP^dp1-6 neurons.
The mark [12] stands for this setting: APP^dp1-6 neurons, 10 μM (FIG. 2C).
Setting [13] is: 0.5 mM single dose at t=0, with atorvastatin 10 μM, 5 days.

Entries after “also recorded” stand apart in the source; their conditions may differ. Where two headings read alike, the source gives them in different places. Where a SMILES comes first, the peptide text is derived from it. The star is where a group is joined. Cbz = O=C(OCc1ccccc1)*

With `CC(C)C(O)CC[C@@H](C)[C@H]1CC[C@H]2[C@@H]3CC=C4C[C@@H](O)CC[C@]4(C)[C@H]3CC[C@]12C` (some centres unmarked) [24-hydroxycholesterol], in [1] (setting [12]), the pThr231Tau/tTau result was “reduced”.

Consider `Clc1ccccc1CNCC1CCC(CNCc2ccccc2Cl)CC1` (centres unmarked) [AY-9944], for which the pThr231Tau/tTau result in [1] (setting [12]) was “did significantly decrease; also recorded: minor effect”. Further, in [2] (5 μM), the 7DHC levels entry is given as “increased”, the 24-hydroxycholesterol in media result is “decreased”, the desmosterol levels result is recorded as “reduced” and the free cholesterol levels result is “reduced”.

Consider `COc1ccc2cc3[n+](cc2c1OC)CCc1cc2c(cc1-3)OCO2` [Berberine], for which the “Tau accumulation in the CA1 region of the hippocampus” value in data set [3] is on record as “no change”.

Turning to `COC(=O)[C@H](CC(C)C)NC(=O)c1ccc(NC[C@@H](N)CS)cc1-c1cccc2ccccc12` [GGTI-298], the pThr231Tau/tTau entry in data set [1] (setting [12]) was “did not significantly reduce”.

As to `Cc1cc(SCc2sc(-c3ccc(C(F)(F)F)cc3)nc2C)ccc1OCC(=O)O` [GW50156], the pThr231Tau/tTau result in data set [1] (setting [12]) was “did not decrease”.

Take `CSc1cc(C)nc(SC)c1NC(=O)CN1CCN(CCSc2nc3ccccc3[nH]2)CC1` [K604]: the pThr231Tau/tTau result was “reduced” in data set [1] (APP^dp1-6 neurons, 25 μM, 5-day treatment (FIG. 2G)) and “reduced” in data set [4].

Turning to `CC(C)C[C@@H](C=O)NC(=O)[C@H](CC(C)C)NC(=O)[C@H](CC(C)C)NC(=O)OCc1ccccc1` [MG132] (Cbz-Leu-Leu-Leu-aldehyde), the “abrogation of the atorvastatin-induced decrease in pThr231Tau/tTau ratio” value in data set [1] (5 μM co-treated with atorvastatin 10 μM) is “abrogated the decrease”.

Consider `C[C@@](O)(CCOP(=O)(O)OP(=O)(O)O)CC(=O)O` [MVA-5PP, mevalonate-5-pyrophosphate], for which the “rescue of the effect of atorvastatin on pThr231Tau/tTau” value (“rescue … on pThr231Tau/tTau” for short) in data set [1] was “rescued”.

As to `C[C@@](O)(CCOP(=O)(O)O)CC(=O)O` [MVP, mevalonate-5-phosphate], in data set [1] (setting [13]), the “rescue … on pThr231Tau/tTau” value was “rescued”.

As to `O=S(=O)(c1ccccc1)N(CC(F)(F)F)c1ccc(C(O)(C(F)(F)F)C(F)(F)F)cc1` [T091317], the pThr231Tau/tTau result in data set [1] (setting [12]) was “reduced”. For the same compound, in [2] (10 μM), the 24-hydroxycholesterol in media entry is on record as “unaltered” and the desmosterol levels result is on record as “decreased”.

For the compound `F/C(COc1ccc2c(c1)[nH]c1ccccc12)=C1/CN2CCC1CC2` [YM-53601], the pThr231Tau/tTau entry in data set [1] (APP^dp1-6 neurons, 20 μM (FIG. 2C)) is reported as “did significantly decrease”.

As to `CC(C)c1c(C(=O)Nc2ccccc2)c(-c2ccccc2)c(-c2ccc(F)cc2)n1CC[C@@H](O)C[C@@H](O)CC(=O)O` [atorvastatin], in data set [5], the Aβ42 secretion result is “did not affect”. Besides, the “pThr231Tau/Tau after removal of compound” value in [1] (removal after five days of treatment) is on record as “recovery”. Besides, in data set [6], the pS202/T205Tau by immunofluorescence result is reported as “reduced”, the pS396/S404Tau by immunofluorescence result is given as “reduced” and the “pThr231 phosphorylation-dependent conformational Tau epitope (TG3) by immunofluorescence” value is “reduced”. The astrocyte viability entry in data set [7] is reported as “induced major astrocyte cell-death”. Moreover, the pThr231Tau/tTau entry in [4] is “reduced”. In addition, the “cell viability or neuronal number” value in [8] is listed as “slightly cytotoxic at higher concentrations”. Further, in data set [2] (10 μM), the 7DHC levels entry is “trended towards decreased”, the 24-hydroxycholesterol in media result was “unaltered” and the desmosterol levels entry is “reduced”.

On to `CC(C)c1cc(C(C)C)c(CC(=O)NS(=O)(=O)Oc2c(C(C)C)cccc2C(C)C)c(C(C)C)c1` [avasimibe], for which the pThr231Tau/tTau result in data set [1] (APP^dp1-6 neurons, 10 μM, 5-day treatment (FIG. 2G)) was “reduced”; in data set [4] it was “reduced”.

As to `O=C1Nc2ccc(Cl)cc2[C@@](C#CC2CC2)(C(F)(F)F)O1` [efavirenz, (S)-6-chloro-(cyclopropylethynyl)-1,4-dihydro-4-(trifluoromethyl)-2H-3,1-benzoxazin-2-one], the astrocyte viability entry in data set [7] was “did not affect astrocyte viability even at high doses”. The “adverse effects in HIV patients” value in data set [9] was “significant adverse effects that include neurotoxicity”. The “adverse effects in mice” value in [10] is recorded as “Major adverse effects were not observed”.

Turning to `CC[C@H](C)C(=O)O[C@H]1C[C@@H](C)C=C2C=C[C@H](C)[C@H](CC[C@@H]3C[C@@H](O)CC(=O)O3)[C@H]21` [lovastatin], in data set [1] (APP^dp1-6 neurons), the “pThr231Tau/tTau, dosage effect” value was “reduced pThr231Tau/tTau in a dose-dependent manner”. Further, in data set [8], the “cell viability or neuronal number” value is on record as “minor effects”.

As for `CC[C@H](C)C(=O)O[C@H]1CCC=C2C=C[C@H](C)[C@H](CC[C@@H]3C[C@@H](O)CC(=O)O3)[C@H]21` [mevastatin], the “pThr231Tau/tTau, dosage effect” value in data set [1] (APP^dp1-6 neurons) is listed as “reduced pThr231Tau/tTau in a dose-dependent manner”. For the same compound, the “cell viability or neuronal number” value in data set [11] was “minor effects”.

Take `C=C1[C@@H](O)[C@@H]2O[C@]3(CC[C@H](/C=C/[C@@H](C)[C@@H]4CC(C)=C[C@@]5(O[C@H](C[C@@](C)(O)C(=O)O)CC[C@H]5O)O4)O3)CC[C@H]2O[C@@H]1[C@@H](O)C[C@H](C)[C@H]1O[C@@]2(CCCCO2)CC[C@H]1C` [okadaic acid]: in [1] (1.25 nM co-treated with atorvastatin 10 μM), the “abrogation of the atorvastatin-induced decrease in pThr231Tau/tTau ratio” value is reported as “Only proteasomal inhibition abrogated the decrease”.

For `CC(C)c1nc(N(C)S(C)(=O)=O)nc(-c2ccc(F)cc2)c1/C=C/[C@@H](O)C[C@@H](O)CC(=O)O` [rosuvastatin], the “pThr231Tau/tTau, confirmed non-toxic screening hit” value in data set [1] (APP^dp1-6 neurons, 5 μM, 5 days) is recorded as “hit-list”.

mevalonate [MVA]: the “rescue … on pThr231Tau/tTau” value in data set [1] (setting [13]) is “rescued”.
